Experimental data published in the NIST ThermoML archive (doi:10.1016/j.fluid.2018.05.028).

Assay: refractive index (Na D-line) (dimensionless); xn = mol fraction of the nth substance listed
Conditions: 101 kPa, Liquid, Standard Abbe refractometry

CCCCCCCC/C=C\CCCCCCCC(=O)OCC [ethyl (Z)-9-octadeceneoate] + CCCO
refractive index
Conditions	x2 = 0	x2 = 0.1	x2 = 0.2	x2 = 0.3	x2 = 0.4	x2 = 0.5	x2 = 0.6	x2 = 0.7	x2 = 0.8	x2 = 0.9
293.15 K	1.4494	1.4484	1.4468	1.4448	1.4422	1.4388	1.4346	1.4287	1.4205	1.408
298.15 K	1.4474	1.4464	1.4448	1.4427	1.4401	1.4367	1.4325	1.4267	1.4184	1.4058
303.15 K	1.4454	1.4444	1.4427	1.4406	1.4381	1.4347	1.4305	1.4246	1.4163	1.4037
308.15 K	1.4433	1.4423	1.4407	1.4386	1.436	1.4326	1.4284	1.4225	1.4142	1.4016
313.15 K	1.4414	1.4403	1.4386	1.4365	1.4339	1.4305	1.4262	1.4204	1.4121	1.3994
318.15 K	1.4395	1.4382	1.4366	1.4344	1.4318	1.4284	1.4241	1.4183	1.4099	1.3973
323.15 K	1.4375	1.4362	1.4345	1.4323	1.4297	1.4263	1.422	1.4161	1.4078	1.3952
328.15 K	1.4355	1.4341	1.4325	1.4303	1.4276	1.4242	1.4199	1.4139	1.4057	1.393
333.15 K	1.4335	1.4321	1.4304	1.4282	1.4255	1.422	1.4178	1.4118	1.4035	1.3907
338.15 K	1.4315	1.4301	1.4284	1.4261	1.4234	1.4199	1.4156	1.4096	1.4013	1.3884
343.15 K	1.4296	1.4281	1.4264	1.4241	1.4213	1.4178	1.4134	1.4074	1.3991	1.3861

CCCCCCCCCCCCCCCC [hexadecane] + CCCCO
refractive index
Conditions	x2 = 0	x2 = 0.1	x2 = 0.2	x2 = 0.3	x2 = 0.4	x2 = 0.5	x2 = 0.6	x2 = 0.7	x2 = 0.8	x2 = 0.9
293.15 K	1.434	1.4329	1.4315	1.4295	1.4274	1.425	1.422	1.4184	1.4139	1.4078
298.15 K	1.4318	1.4307	1.4293	1.4274	1.4252	1.4228	1.4199	1.4162	1.4118	1.4057
303.15 K	1.4296	1.4286	1.4271	1.4252	1.4231	1.4206	1.4177	1.4141	1.4096	1.4036
308.15 K	1.4275	1.4264	1.425	1.423	1.4209	1.4185	1.4155	1.4119	1.4075	1.4015
313.15 K	1.4254	1.4242	1.4228	1.4208	1.4187	1.4163	1.4134	1.4097	1.4053	1.3994
318.15 K	1.4233	1.4221	1.4206	1.4186	1.4165	1.4141	1.4111	1.4075	1.4031	1.3973
323.15 K	1.4211	1.4199	1.4184	1.4164	1.4143	1.4119	1.4089	1.4053	1.4009	1.3951
328.15 K	1.419	1.4177	1.4162	1.4142	1.4121	1.4097	1.4067	1.4031	1.3987	1.3929
333.15 K	1.4169	1.4156	1.4141	1.4121	1.4099	1.4074	1.4045	1.4009	1.3965	1.3907
338.15 K	1.4149	1.4135	1.4119	1.4099	1.4077	1.4052	1.4022	1.3987	1.3942	1.3885
343.15 K	1.4129	1.4114	1.4097	1.4076	1.4056	1.403	1.4	1.3964	1.392	1.3862

CCCCCCCCCCCCCCCC [hexadecane] + CCCO
refractive index
Conditions	x2 = 0	x2 = 0.1	x2 = 0.2	x2 = 0.3	x2 = 0.4	x2 = 0.5	x2 = 0.6	x2 = 0.7	x2 = 0.8	x2 = 0.9
293.15 K	1.434	1.4327	1.431	1.4288	1.4266	1.4233	1.4196	1.4148	1.4084	1.3993
298.15 K	1.4318	1.4305	1.4288	1.4266	1.4244	1.4211	1.4174	1.4127	1.4062	1.3972
303.15 K	1.4296	1.4284	1.4266	1.4244	1.4222	1.4189	1.4152	1.4105	1.4041	1.3951
308.15 K	1.4275	1.4262	1.4245	1.4223	1.42	1.4167	1.4131	1.4083	1.4019	1.3929
313.15 K	1.4254	1.4241	1.4223	1.4201	1.4179	1.4145	1.4109	1.4061	1.3998	1.3908
318.15 K	1.4233	1.4219	1.4201	1.4179	1.4156	1.4123	1.4087	1.4038	1.3976	1.3885
323.15 K	1.4211	1.4197	1.4179	1.4157	1.4134	1.41	1.4064	1.4016	1.3952	1.3863
328.15 K	1.419	1.4176	1.4157	1.4135	1.4112	1.4077	1.4041	1.3993	1.393	1.3841
333.15 K	1.4169	1.4154	1.4135	1.4113	1.4089	1.4054	1.4018	1.397	1.3907	1.3818
338.15 K	1.4149	1.4133	1.4113	1.4091	1.4067	1.4032	1.3995	1.3947	1.3884	1.3795
343.15 K	1.4129	1.4111	1.4092	1.4069	1.4044	1.401	1.3972	1.3924	1.386	1.3771
